From ChEMBL document CHEMBL6078652, “Discovery of Sporachelins by Genome Mining of a Micromonospora Strain” (J Nat Prod, 2024)
Active and inactive are the calls of the source. No cut-off for these calls is given here.

Tests used:
[1] = tested on: LX-2; experiment: Antifibrotic activity against TGFbeta-1 induced human LX-2 cells assessed as inhibition of TGFB1 mRNA expression at 20 uM incubated for 24 hrs by qRT-PCR analysis relative to control; format: functional; set-up: scale not given: the % may be the effect or the level left
[2] = tested on: LX-2; experiment: Antifibrotic activity against TGFbeta-1 induced human LX-2 cells assessed as inhibition of COL1A1 mRNA expression at 20 uM incubated for 24 hrs by qRT-PCR analysis relative to control; format: functional; set-up: scale not given: the % may be the effect or the level left
[3] = tested on: LX-2; experiment: Antifibrotic activity against TGFbeta-1 induced human LX-2 cells assessed as inhibition of ACTA2 mRNA expression at 20 uM incubated for 24 hrs by qRT-PCR analysis relative to control; format: functional; set-up: scale not given: the % may be the effect or the level left
[4] = tested on: Staphylococcus aureus; experiment: Antibacterial activity against Staphylococcus aureus ATCC 29213 assessed as bacterial growth inhibition incubated for 16 hrs in presence of Muller-Hinton medium by broth microdilution method; format: functional, organism-based
[5] = tested on: NIH3T3; experiment: Antifibrotic activity against TGFbeta-1 induced mouse NIH3T3 cells assessed as decrease in Acta2 mRNA expression at 5 uM incubated for 24 hrs by qRT-PCR analysis relative to control; format: functional; set-up: scale not given: the % may be the effect or the level left
[6] = tested on: Escherichia coli; experiment: Antibacterial activity against Escherichia coli ATCC 35218 assessed as bacterial growth inhibition incubated for 16 hrs in presence of Muller-Hinton medium by broth microdilution method; format: functional, organism-based
[7] = tested on: LX-2; experiment: Antifibrotic activity against TGFbeta-1 induced human LX-2 cells assessed as inhibition of ACTA2 mRNA expression at 5 uM incubated for 24 hrs by qRT-PCR analysis relative to control; format: functional; set-up: scale not given: the % may be the effect or the level left
[8] = tested on: Pseudomonas aeruginosa; experiment: Antibacterial activity against Pseudomonas aeruginosa ATCC 27853 assessed as bacterial growth inhibition incubated for 16 hrs in presence of Muller-Hinton medium by broth microdilution method; format: functional, organism-based
[9] = tested on: Staphylococcus aureus; experiment: Antibacterial activity against Staphylococcus aureus ATCC 33591 assessed as bacterial growth inhibition incubated for 16 hrs in presence of Muller-Hinton medium by broth microdilution method; format: functional, organism-based
[10] = tested on: Acinetobacter baumannii; experiment: Antibacterial activity against Acinetobacter baumannii ATCC 19606 assessed as bacterial growth inhibition incubated for 16 hrs in presence of Muller-Hinton medium by broth microdilution method; format: functional, organism-based
[11] = tested on: LX-2; experiment: Antifibrotic activity against TGFbeta-1 induced human LX-2 cells assessed as inhibition of TGFB1 mRNA expression incubated for 24 hrs by qRT-PCR analysis; format: functional, cell-based; details: dose 1-5 µM
[12] = tested on: NIH3T3; experiment: Antifibrotic activity against TGFbeta-1 induced mouse NIH3T3 cells assessed as decrease in Acta2 mRNA expression at 1 uM incubated for 24 hrs by qRT-PCR analysis relative to control; format: functional; set-up: scale not given: the % may be the effect or the level left
[13] = tested on: Klebsiella pneumoniae; experiment: Antibacterial activity against Klebsiella pneumoniae ATCC 10031 assessed as bacterial growth inhibition incubated for 16 hrs in presence of Muller-Hinton medium by broth microdilution method; format: functional, organism-based
[14] = tested on: NIH3T3; experiment: Antifibrotic activity against TGFbeta-1 induced mouse NIH3T3 cells assessed as decrease in COL1A1 mRNA expression at 5 uM incubated for 24 hrs by qRT-PCR analysis relative to control; format: functional; set-up: scale not given: the % may be the effect or the level left
[15] = tested on: Pseudomonas aeruginosa; experiment: Antibacterial activity against Pseudomonas aeruginosa 2774 assessed as bacterial growth inhibition incubated for 16 hrs in presence of Muller-Hinton medium by broth microdilution method; format: functional, organism-based
[16] = tested on: LX-2; experiment: Cytotoxicity against human LX-2 cells assessed as reduction in cell viability at 200 uM incubated for 24 hrs by CCK-8 assay; format: toxicity, cell-based; details: lx-2, 24 h
[17] = tested on: Escherichia coli; experiment: Antibacterial activity against Escherichia coli ATCC 25922 assessed as bacterial growth inhibition incubated for 16 hrs in presence of Muller-Hinton medium by broth microdilution method; format: functional, organism-based
[18] = biological target: T1, Polyunsaturated fatty acid 5-lipoxygenase (Homo sapiens) (UniProt P09917); experiment: Inhibition of human 5-LO at 2 uM incubated for 15 mins in presence of ATP by measuring fluorescence intensity relative to control
T1 sequence (whole entry): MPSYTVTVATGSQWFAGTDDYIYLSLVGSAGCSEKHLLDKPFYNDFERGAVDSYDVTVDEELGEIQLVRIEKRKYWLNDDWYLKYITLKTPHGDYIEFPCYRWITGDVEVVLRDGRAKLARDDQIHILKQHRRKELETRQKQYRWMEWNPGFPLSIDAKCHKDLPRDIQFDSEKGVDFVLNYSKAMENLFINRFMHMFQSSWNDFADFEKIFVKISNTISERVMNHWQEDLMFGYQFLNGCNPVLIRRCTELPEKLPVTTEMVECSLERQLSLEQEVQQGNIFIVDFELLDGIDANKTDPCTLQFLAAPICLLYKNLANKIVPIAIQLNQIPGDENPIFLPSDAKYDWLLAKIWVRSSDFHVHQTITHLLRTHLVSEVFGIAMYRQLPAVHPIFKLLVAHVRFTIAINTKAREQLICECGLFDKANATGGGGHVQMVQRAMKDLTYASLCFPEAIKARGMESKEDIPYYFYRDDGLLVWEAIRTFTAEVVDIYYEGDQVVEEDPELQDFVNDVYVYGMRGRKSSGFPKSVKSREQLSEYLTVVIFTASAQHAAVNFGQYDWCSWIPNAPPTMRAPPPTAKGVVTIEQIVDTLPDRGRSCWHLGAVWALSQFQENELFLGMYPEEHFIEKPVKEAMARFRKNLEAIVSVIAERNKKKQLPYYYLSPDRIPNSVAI

[19] = tested on: LX-2; experiment: Antifibrotic activity against TGFbeta-1 induced human LX-2 cells assessed as inhibition of COL1A1 mRNA expression at 1 uM incubated for 24 hrs by qRT-PCR analysis relative to control; format: functional; set-up: scale not given: the % may be the effect or the level left
[20] = tested on: LX-2; experiment: Antifibrotic activity against TGFbeta-1 induced human LX-2 cells assessed as inhibition of COL1A1 mRNA expression incubated for 24 hrs by qRT-PCR analysis; format: functional, cell-based; details: dose 1-5 µM
[21] = tested on: LX-2; experiment: Antifibrotic activity against TGFbeta-1 induced human LX-2 cells assessed as inhibition of ACTA2 mRNA expression incubated for 24 hrs by qRT-PCR analysis; format: functional, cell-based; details: dose 1-5 µM
[22] = tested on: LX-2; experiment: Antifibrotic activity against TGFbeta-1 induced human LX-2 cells assessed as inhibition of TGFB1 mRNA expression at 1 uM incubated for 24 hrs by qRT-PCR analysis relative to control; format: functional; set-up: scale not given: the % may be the effect or the level left
[23] = tested on: Enterococcus faecalis; experiment: Antibacterial activity against Enterococcus faecalis ATCC 33186 assessed as bacterial growth inhibition incubated for 16 hrs in presence of brain heart infusion medium by broth microdilution method; format: functional, organism-based
[24] = tested on: Acinetobacter baumannii; experiment: Antibacterial activity against Acinetobacter baumannii 2799 assessed as bacterial growth inhibition incubated for 16 hrs in presence of Muller-Hinton medium by broth microdilution method; format: functional, organism-based
[25] = tested on: LX-2; experiment: Antifibrotic activity against TGFbeta-1 induced human LX-2 cells assessed as inhibition of TGFB1 mRNA expression at 5 uM incubated for 24 hrs by qRT-PCR analysis relative to control; format: functional; set-up: scale not given: the % may be the effect or the level left
[26] = tested on: Bacillus subtilis; experiment: Antibacterial activity against Bacillus subtilis CPCC 100029 assessed as bacterial growth inhibition incubated for 16 hrs in presence of Muller-Hinton medium by broth microdilution method; format: functional, organism-based
[27] = tested on: LX-2; experiment: Antifibrotic activity against TGFbeta-1 induced human LX-2 cells assessed as inhibition of ACTA2 mRNA expression at 1 uM incubated for 24 hrs by qRT-PCR analysis relative to control; format: functional; set-up: scale not given: the % may be the effect or the level left
[28] = tested on: Enterococcus faecium; experiment: Antibacterial activity against Enterococcus faecium 310682 (VRE) assessed as bacterial growth inhibition incubated for 16 hrs in presence of brain heart infusion medium by broth microdilution method; format: functional, organism-based
[29] = tested on: LX-2; experiment: Antifibrotic activity against TGFbeta-1 induced human LX-2 cells assessed as inhibition of COL1A1 mRNA expression at 5 uM incubated for 24 hrs by qRT-PCR analysis relative to control; format: functional; set-up: scale not given: the % may be the effect or the level left
[30] = tested on: Klebsiella pneumoniae; experiment: Antibacterial activity against Klebsiella pneumoniae ATCC 700603 assessed as bacterial growth inhibition incubated for 16 hrs in presence of Muller-Hinton medium by broth microdilution method; format: functional, organism-based
[31] = tested on: NIH3T3; experiment: Antifibrotic activity against TGFbeta-1 induced mouse NIH3T3 cells assessed as decrease in COL1A1 mRNA expression at 1 uM incubated for 24 hrs by qRT-PCR analysis relative to control; format: functional; set-up: scale not given: the % may be the effect or the level left

O=C(O[C@@H]1Cc2c(O)cc(O)cc2O[C@@H]1c1cc(O)c(O)c(O)c1)c1cc(O)c(O)c(O)c1 [EPIGALOCATECHIN GALLATE] was tested, and the Activity [1] was 88%, the Activity [2] was 89% and the Activity [3] was 62%.
In the case of O=C(Cc1ccccc1)OC[C@H](CCCCNC(=O)c1cccc(O)c1O)NC(=O)c1cccc(O)c1O, the Activity [4] is reported as “inactive”, the Activity [5] is reported as 124% and the Activity [6] is reported as “inactive”. The Activity [7] was 139%, the Activity [8] was “inactive” and the Activity [9] was “inactive”. The Activity [10] was “inactive”, the Activity [11] was “Dose-dependent-effect” and the Activity [12] was 94%. The Activity [13] was “inactive”, the Activity [14] was 81% and the Activity [15] was “inactive”. The Activity [16] was “Non-toxic”, the Activity [17] was “inactive” and the inhibition [18] was 72%. For the same compound, the Activity [19] was 46%, the Activity [20] was “Dose-dependent-effect” and the Activity [21] was “Dose-dependent-effect”. The Activity [22] was 46%, the Activity [23] was “inactive” and the Activity [24] was “inactive”. The Activity [25] was 69%, the Activity [26] was “inactive” and the Activity [27] was 82%. The Activity [28] was “inactive”, the Activity [29] was 87% and the Activity [30] was “inactive”. The Activity [31] was 78%.
